The conditions of this data set: for aqueous solubility: pH 6.8.

Structures are written as SMILES. In brackets after ≈: the same amount, converted by molar mass.

`CN(C)c1ccnc2sc3c(=O)n(N4CCCCCC4)cnc3c12`: the MDR1-MDCK efflux ratio was determined as 3.06; the intrinsic clearance, human liver microsomes is 8.59 mL/min/kg; the intrinsic clearance, rat liver microsomes was determined as 90.9 mL/min/kg.

On to `COc1ccncc1NCc1ccc2c(c1)OCCO2`, for which the MDR1-MDCK efflux ratio turned out to be 0.666; the intrinsic clearance, human liver microsomes was 17.8 mL/min/kg; the intrinsic clearance, rat liver microsomes is 570 mL/min/kg; the aqueous solubility – broadly, the dissolved amount per volume that the medium holds – is 31.1 µg/mL (≈ 114 µM).

Turning to `CC(C)NC(=O)c1cc(-c2ccccc2)n(-c2ccccn2)n1`, the MDR1-MDCK efflux ratio was 0.762; the intrinsic clearance, human liver microsomes came to 8.11 mL/min/kg; the intrinsic clearance, rat liver microsomes was found to be 80.5 mL/min/kg; the aqueous solubility was 54.1 µg/mL (≈ 176 µM).

For the compound `CC(=O)N1CC[C@H]2O[C@H]3c4ccc(O[C@@H]5O[C@H](CO)[C@@H](O[C@@H]6O[C@H](CO)[C@H](O)[C@H](O)[C@H]6O)[C@H](O)[C@H]5O)cc4OC(C)(C)[C@@H]3C[C@H]2C1`, the MDR1-MDCK efflux ratio worked out at 0.675; the intrinsic clearance, human liver microsomes was at most 4.74 mL/min/kg; the intrinsic clearance, rat liver microsomes is at most 10.7 mL/min/kg.

Consider `Cc1cc(Cn2cnc(C#N)c2C#N)c2ccccc2n1`, for which the MDR1-MDCK efflux ratio was determined as 2.84; the intrinsic clearance, human liver microsomes was at most 4.74 mL/min/kg; the intrinsic clearance, rat liver microsomes was determined as 36.7 mL/min/kg.

For `O=C(CC[C@@H]1CCCN2CCCC[C@H]12)NCc1ncc(Cl)cn1`, the MDR1-MDCK efflux ratio was determined as 33.8; the intrinsic clearance, human liver microsomes was at most 4.74 mL/min/kg; the intrinsic clearance, rat liver microsomes came out at 37.6 mL/min/kg.

For `Cc1ccc(NC(=O)CN2C(=O)CN(C)C2=O)cc1C`, the MDR1-MDCK efflux ratio was found to be 3.8; the intrinsic clearance, human liver microsomes was at most 4.74 mL/min/kg; the intrinsic clearance, rat liver microsomes is 62.9 mL/min/kg.

For `Cc1ccc(OCC2(O)CCN(CC3(O)CCN(c4ccccc4C)CC3)CC2)cc1`, the MDR1-MDCK efflux ratio turned out to be 0.655; the fraction unbound, human plasma is 0.00911; the intrinsic clearance, human liver microsomes was found to be 400 mL/min/kg.

As to `Cn1cc(-c2nnc(NCc3ccc4ccccc4c3)o2)cn1`, the MDR1-MDCK efflux ratio is 0.701; the intrinsic clearance, human liver microsomes amounted to 7.14 mL/min/kg; the intrinsic clearance, rat liver microsomes was determined as 46.3 mL/min/kg; the aqueous solubility was determined as 11.2 µg/mL (≈ 36.8 µM).

`C[n+]1cc2c3c(ccc2c2ccc4cc5c(cc4c21)OCO5)OCO3`: the MDR1-MDCK efflux ratio was determined as 13.5; the intrinsic clearance, human liver microsomes worked out at 8.23 mL/min/kg; the intrinsic clearance, rat liver microsomes was found to be 58.2 mL/min/kg; the aqueous solubility was 32.2 µg/mL.

On to `Cc1cc(Nc2ncccn2)cc(C2CCCN(CC(=O)Nc3ccc(F)cc3)C2)n1` (stereo not drawn), for which the MDR1-MDCK efflux ratio amounted to 8.32; the intrinsic clearance, human liver microsomes came to 64.4 mL/min/kg; the intrinsic clearance, rat liver microsomes was determined as 456 mL/min/kg.

For `O=C(CN1CCCN(c2nccs2)CC1)Nc1cccc(Cl)c1`, the MDR1-MDCK efflux ratio was found to be 0.851; the intrinsic clearance, human liver microsomes was 442 mL/min/kg; the intrinsic clearance, rat liver microsomes was found to be 1950 mL/min/kg; the aqueous solubility worked out at 37.1 µg/mL (≈ 106 µM).

For `Fc1cncc(-c2cnc(NCc3ccc(Cl)c(F)c3)nc2)c1`, the MDR1-MDCK efflux ratio is 0.339; the intrinsic clearance, human liver microsomes was determined as 14.9 mL/min/kg; the intrinsic clearance, rat liver microsomes was 104 mL/min/kg; the aqueous solubility was 3.2 µg/mL (≈ 9.62 µM).

`Clc1ccc2c(c1)CCc1cccnc1C2=C1CCNCC1`: the MDR1-MDCK efflux ratio is 47.8; the intrinsic clearance, human liver microsomes was at most 4.74 mL/min/kg; the intrinsic clearance, rat liver microsomes stood at 108 mL/min/kg.

Compound `CC(C)c1nc(/C=C/c2cnn(C)c2)ncc1C(=O)O` displayed an intrinsic clearance, human liver microsomes of at most 4.74 mL/min/kg and an intrinsic clearance, rat liver microsomes of at most 10.7 mL/min/kg.

Consider `C#CCNC(=O)Cc1coc(-c2ccccc2)n1`, for which the MDR1-MDCK efflux ratio stood at 0.719; the intrinsic clearance, human liver microsomes was 26.9 mL/min/kg; the intrinsic clearance, rat liver microsomes is 142 mL/min/kg.

On to `O=C(Cc1csc(-c2ccc(F)c(F)c2)n1)NCC(F)(F)F`, for which the aqueous solubility is 0.36 µg/mL (≈ 1.07 µM).

Consider `Cn1cc(NC(=O)c2cn(Cc3ccccc3)nn2)cn1`, for which the MDR1-MDCK efflux ratio is 1.03; the intrinsic clearance, human liver microsomes was at most 4.74 mL/min/kg; the intrinsic clearance, rat liver microsomes was at most 10.7 mL/min/kg; the aqueous solubility is 23.4 µg/mL (≈ 82.8 µM).

`Cn1ncnc1COc1nn2c(-c3c(F)cccc3F)nnc2cc1C1CCC1`: the MDR1-MDCK efflux ratio is 73.4; the intrinsic clearance, human liver microsomes was at most 4.74 mL/min/kg; the intrinsic clearance, rat liver microsomes came out at 40.8 mL/min/kg; the aqueous solubility was determined as 41.4 µg/mL (≈ 104 µM).

Compound `CC(C)c1c(-c2ccccc2)[n+]([O-])c2c([n+]1[O-])CCC2` registered an intrinsic clearance, human liver microsomes of at most 4.74 mL/min/kg and an intrinsic clearance, rat liver microsomes of 14.3 mL/min/kg.

`O=C(C1CC1c1ccc(F)cc1)N1CCC(n2c(=O)[nH]c3ccccc32)CC1` (stereo not drawn) returned an intrinsic clearance, human liver microsomes of 14.7 mL/min/kg; an intrinsic clearance, rat liver microsomes of 233 mL/min/kg; an aqueous solubility of 47.8 µg/mL (≈ 126 µM).

As for `NC1CCC(C(=O)N2CCC(c3c[nH]c4ncccc34)CC2)C1` (stereo not drawn), the MDR1-MDCK efflux ratio was 2.66; the fraction unbound, human plasma came out at 0.827; the intrinsic clearance, human liver microsomes is at most 4.74 mL/min/kg.

`COc1ccc(N2CCCN(CC3CCN(C(=O)C4CC4)CC3)CC2)cc1`: the MDR1-MDCK efflux ratio turned out to be 1.11; the intrinsic clearance, human liver microsomes is 5.03 mL/min/kg; the intrinsic clearance, rat liver microsomes was found to be 50.9 mL/min/kg; the aqueous solubility is 59.7 µg/mL (≈ 161 µM).

The compound `O=C(Cn1ncc2ccccc21)Nc1ccc2c(c1)CCO2` had an intrinsic clearance, human liver microsomes of 13.7 mL/min/kg and an intrinsic clearance, rat liver microsomes of 210 mL/min/kg.

Consider `CCc1cnc(CNC(=O)N2CCC(n3cncn3)CC2)s1`, for which the MDR1-MDCK efflux ratio was found to be 24.7; the intrinsic clearance, human liver microsomes is at most 4.74 mL/min/kg; the intrinsic clearance, rat liver microsomes was at most 10.7 mL/min/kg; the aqueous solubility came out at 49.4 µg/mL (≈ 154 µM).

On to `Cc1nccc(-c2cccc(NCC(=O)NCc3ccccc3)c2)n1`, for which the intrinsic clearance, human liver microsomes was 62.8 mL/min/kg and the intrinsic clearance, rat liver microsomes amounted to 653 mL/min/kg.

Take `Cn1cc(-c2ccc3nnc(C(F)(F)c4ccc5ncccc5c4)n3n2)cn1`: the MDR1-MDCK efflux ratio was found to be 9.46; the intrinsic clearance, human liver microsomes is at most 4.74 mL/min/kg; the intrinsic clearance, rat liver microsomes amounted to 59.2 mL/min/kg; the aqueous solubility is 43 µg/mL (≈ 114 µM).

For `Cc1nn(C)c2nc(-c3ccncc3)cc(C(=O)O)c12`, the intrinsic clearance, human liver microsomes was at most 4.74 mL/min/kg and the intrinsic clearance, rat liver microsomes was at most 10.7 mL/min/kg.

Turning to `O=C(Nc1ccc(Cl)cc1)C(=O)N(C1CCCC1)C1CC1`, the aqueous solubility is 29.4 µg/mL (≈ 95.8 µM).

As for `Cc1noc2ncnc(N3CCCN(C(=O)C4CC4)CC3)c12`, the MDR1-MDCK efflux ratio worked out at 21.2; the intrinsic clearance, human liver microsomes was 6.43 mL/min/kg; the intrinsic clearance, rat liver microsomes was 149 mL/min/kg.

As to `CNc1ccc(/C=C/c2ccc(OCCOCCOCCF)nc2)cc1`, the MDR1-MDCK efflux ratio came to 0.533; the intrinsic clearance, human liver microsomes is 253 mL/min/kg; the intrinsic clearance, rat liver microsomes amounted to 564 mL/min/kg.

For `Cc1ccnc(NCc2cccnc2)n1`, the MDR1-MDCK efflux ratio amounted to 0.596; the intrinsic clearance, human liver microsomes is at most 4.74 mL/min/kg; the intrinsic clearance, rat liver microsomes was 16.5 mL/min/kg.

Take `N#Cc1ccc(OCc2nnc(S)n2-c2ccccc2)cc1`: the aqueous solubility is 45.7 µg/mL (≈ 148 µM).

`COc1cccc(OC)c1-c1cc(C(=O)N[C@@H](CC(C)C)C(=O)O)nn1-c1ccnc2cc(Cl)ccc12`: the MDR1-MDCK efflux ratio was determined as 39.1; the intrinsic clearance, human liver microsomes was found to be 9.49 mL/min/kg; the intrinsic clearance, rat liver microsomes was determined as 108 mL/min/kg; the aqueous solubility amounted to 90.4 µg/mL (≈ 173 µM).

Values taken from the Biogen ADME set (Fang et al. 2023).
